Experimental data from patent publication US8846704B2, “Thiopyrimidine-based compounds and uses thereof” (YM Biosciences Austraila Pty Ltd, priority 2007, dated 2014).

Columns and labels:
Format in all cases: cell-based
[1] = target: T1, BaF3 TELJAK3 cells (Homo sapiens, UniProt P52333); assay: Cellular screening, BaF3 TEL:JAK3 cells, Alamar Blue; details: 40 hr, read-out: BafT_J3 IC50_nM
T1 construct: fused on or other part: TEL (ETV6) N-terminal part, coding nucleotides 1-487, serves as the oligomerising partner; It is fused through a Sal I site to the JAK3 kinase domain and expressed from pTRE2 in BaF3 cells bearing pTET-off; P41212 (Transcription factor ETV6)
T1 sequence (P52333 1-1124): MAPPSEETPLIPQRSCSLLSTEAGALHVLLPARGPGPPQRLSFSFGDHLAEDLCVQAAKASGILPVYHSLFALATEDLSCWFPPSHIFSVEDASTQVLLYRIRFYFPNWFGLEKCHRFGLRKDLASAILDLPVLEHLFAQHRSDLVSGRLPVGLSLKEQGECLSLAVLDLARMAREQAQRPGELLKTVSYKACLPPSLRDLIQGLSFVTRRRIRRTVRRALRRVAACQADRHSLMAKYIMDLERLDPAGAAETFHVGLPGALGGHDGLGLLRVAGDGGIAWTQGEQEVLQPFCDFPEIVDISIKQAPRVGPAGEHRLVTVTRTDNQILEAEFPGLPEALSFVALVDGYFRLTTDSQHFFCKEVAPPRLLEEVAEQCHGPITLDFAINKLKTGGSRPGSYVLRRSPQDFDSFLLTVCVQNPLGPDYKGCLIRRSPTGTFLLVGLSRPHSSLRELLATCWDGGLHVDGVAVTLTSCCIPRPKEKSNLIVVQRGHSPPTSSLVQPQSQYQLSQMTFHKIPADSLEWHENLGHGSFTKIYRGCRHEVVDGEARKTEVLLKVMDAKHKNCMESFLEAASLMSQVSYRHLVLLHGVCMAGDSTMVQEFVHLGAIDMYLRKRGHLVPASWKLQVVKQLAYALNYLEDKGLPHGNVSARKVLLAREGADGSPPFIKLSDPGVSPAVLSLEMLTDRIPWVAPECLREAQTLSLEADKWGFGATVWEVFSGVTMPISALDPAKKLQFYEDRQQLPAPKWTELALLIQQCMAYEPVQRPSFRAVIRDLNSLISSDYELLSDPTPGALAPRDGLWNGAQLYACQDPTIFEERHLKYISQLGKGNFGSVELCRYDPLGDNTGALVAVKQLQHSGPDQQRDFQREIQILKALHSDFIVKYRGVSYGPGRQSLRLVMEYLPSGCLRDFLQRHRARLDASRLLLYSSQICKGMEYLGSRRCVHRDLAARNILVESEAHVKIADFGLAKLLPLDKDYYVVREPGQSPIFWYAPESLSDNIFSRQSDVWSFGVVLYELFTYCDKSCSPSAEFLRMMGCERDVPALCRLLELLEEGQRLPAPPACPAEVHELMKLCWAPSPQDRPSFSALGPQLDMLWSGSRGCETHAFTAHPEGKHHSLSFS
Outline: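 Alamar Blue signal at 544 nm, developed for 4–6 h, measured viability after 40 h of compound treatment at 37 °C, 5% CO2. Cells were growth-factor-independent BaF3 lines transfected with a TEL/JAK3 kinase-domain fusion under tet-off control. They were cultured in DMEM, 10% Tet-approved FBS, lacking WEHI 3B conditioned medium.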

[2] = target: T2, BaF3 TELJAK2 cells (BafT_J2) (Homo sapiens, UniProt O60674); assay: Cellular screening, BaF3 TEL:JAK2 cells, Alamar Blue; details: 40 hr, read-out: BafT_J2 IC50_nM
T2 construct: fused on or other part: TEL (ETV6) N-terminal part, coding nucleotides 1-487, serves as the oligomerising partner; It is fused through a Sal I site to the JAK2 kinase domain and expressed from pTRE2 in BaF3 cells bearing pTET-off; P41212 (Transcription factor ETV6)
Outline: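 Tet-off BaF3 cells carrying a TEL (nt 1-487)–JAK2 kinase-domain fusion, grown factor-independently in DMEM with 10% Tet-approved FBS without WEHI 3B medium. Compounds were diluted to 20 μM in screening plates, and cells (50,000–200,000 cell/mL at 1.1×) were incubated 40 hr at 37 °C, 5% CO2. Alamar Blue was then added for 4-6 hours; read at 544 nm.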

[3] = test system: CTLL2; assay: Cellular screening, CTLL2 cells, Alamar Blue; details: Mus musculus, CTLL-2, read-out: CTLL2 IC50_nM
Outline: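 Viability is read with Alamar Blue at 544 nm, the dye added for the final 4-6 hours. Compounds were incubated for 40 hr with CTLL2 cells taken from late-log-phase culture, at 37° C in 5% CO2.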

T2 sequence (O60674 whole entry, change not shown, the tested form may be a part): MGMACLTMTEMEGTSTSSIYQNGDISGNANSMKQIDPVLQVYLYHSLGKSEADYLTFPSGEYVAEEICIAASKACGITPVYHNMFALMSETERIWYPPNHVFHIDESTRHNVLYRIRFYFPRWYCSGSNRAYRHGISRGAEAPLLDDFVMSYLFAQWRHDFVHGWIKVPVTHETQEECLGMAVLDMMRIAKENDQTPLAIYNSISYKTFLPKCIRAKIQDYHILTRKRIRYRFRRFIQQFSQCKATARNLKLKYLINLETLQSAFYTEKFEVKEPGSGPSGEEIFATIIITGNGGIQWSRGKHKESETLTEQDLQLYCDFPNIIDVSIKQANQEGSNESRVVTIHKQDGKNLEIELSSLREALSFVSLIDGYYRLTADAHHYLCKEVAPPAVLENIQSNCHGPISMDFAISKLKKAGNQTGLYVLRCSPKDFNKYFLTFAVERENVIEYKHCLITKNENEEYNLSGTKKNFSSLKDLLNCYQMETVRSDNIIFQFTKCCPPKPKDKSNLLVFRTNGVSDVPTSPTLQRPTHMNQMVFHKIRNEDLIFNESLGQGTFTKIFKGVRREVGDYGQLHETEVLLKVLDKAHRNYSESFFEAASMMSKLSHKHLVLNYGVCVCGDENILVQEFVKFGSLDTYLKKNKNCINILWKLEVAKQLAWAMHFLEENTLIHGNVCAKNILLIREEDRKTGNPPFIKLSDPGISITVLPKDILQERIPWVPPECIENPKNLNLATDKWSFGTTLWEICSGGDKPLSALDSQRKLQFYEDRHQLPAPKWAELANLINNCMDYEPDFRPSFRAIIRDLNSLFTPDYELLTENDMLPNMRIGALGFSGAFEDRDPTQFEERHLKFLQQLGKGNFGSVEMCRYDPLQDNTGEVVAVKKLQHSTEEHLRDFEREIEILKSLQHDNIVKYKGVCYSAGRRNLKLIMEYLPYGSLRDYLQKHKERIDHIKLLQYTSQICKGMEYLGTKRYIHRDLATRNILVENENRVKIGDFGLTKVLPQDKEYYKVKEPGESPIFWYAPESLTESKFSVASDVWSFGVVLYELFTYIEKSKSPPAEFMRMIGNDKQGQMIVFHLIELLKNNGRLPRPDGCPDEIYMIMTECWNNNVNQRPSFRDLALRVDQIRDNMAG

| SMILES | GI50 [1] | GI50 [2] | IC50 [3] |
| --- | --- | --- | --- |
| CCC(=O)Nc1ccc(Sc2nc(Nc3ccc(N4CCOCC4)cc3)ncc2Cl)cc1 [Compound 347, N-(4-(5-chloro-2-(4-morpholinophenylao)pyrimidin-4-ylthio)phenyl)propionamide] | < 1 µM | > 20 µM | < 5 µM |
| C=CC(=O)Nc1ccc(Sc2ccnc(Nc3cccc(S(N)(=O)=O)c3)n2)cc1 [Compound 364, N-(4-(2-(3-sulfamoylphenylao)pyrimidin-4-ylthio)phenyl)acrylamide] | < 1 µM | < 5 µM | < 1 µM |
| C=CC(=O)Nc1ccc(Sc2nc(Nc3cccc(O)c3)ncc2C)cc1 [Compound 281, N-(4-(2-(3-hydroxyphenylao)-5-methylpyrimidin-4-ylthio)phenyl)acrylamide] | < 1 µM | < 20 µM | < 1 µM |
| CSc1nc(Nc2ccc(N3CCOCC3)cc2)ncc1C [Compound 176, 5-methyl-4-(methylthio)-N-(4-morpholinophenyl)pyrimidin-2-ae] | < 5 µM | < 5 µM | < 5 µM |
| C=CC(=O)Nc1cccc(Sc2ccnc(Nc3ccc(OC)cc3)n2)c1 [Compound 120, N-(3-(2-(4-methoxyphenylao)pyrimidin-4-ylthio)phenyl)acrylamide] | < 1 µM | < 20 µM | < 5 µM |
| Cc1cnc(Nc2ccc(N3CCOCC3)cc2)nc1Sc1ccc(NC(=O)CCC(=O)O)cc1 [Compound 383, 4-(4-(5-methyl-2-(4-morpholinophenylao)pyrimidin-4-ylthio)phenylao)-4-oxobutanoic acid] | > 20 µM | < 20 µM | < 20 µM |
| C=CC(=O)Nc1ccc(Sc2ccnc(Nc3ccc(N4CCOCC4)cc3)n2)c(Cl)c1C [Compound 161, N-(3-chloro-2-methyl-4-(2-(4-morpholinophenylao)pyrimidin-4-ylthio)phenyl)acrylamide] | < 1 µM | > 20 µM | < 5 µM |
| C=CC(=O)Nc1ccc(Sc2ccnc(Nc3ccc(OC)c(O)c3)n2)cc1 [Compound 97] | < 1 µM | < 5 µM | < 1 µM |
| N#CCC(=O)Nc1ccc(Sc2ccnc(Nc3ccc(N4CCC(N5CCCC5)CC4)cc3)n2)cc1 [Compound 88, 2-cyano-N-(4-(2-(4-(4-(pyrrolidin-1-yl)piperidin-1-yl)phenylao)pyrimidin-4-ylthio)phenyl)acetamide] | < 5 µM | < 5 µM | < 20 µM |
| C=CC(=O)Nc1ccc(Sc2ccnc(Nc3ccc(F)c(C#N)c3)n2)cc1 [Compound 354, N-(4-(2-(3-cyano-4-fluorophenylao)pyrimidin-4-ylthio)phenyl)acrylamide] | < 20 µM | < 20 µM | < 20 µM |
| C=CC(=O)Nc1ccc(Sc2ccnc(Nc3ccccc3)n2)cc1 [Compound 350, N-(4-(2-(phenylao)pyrimidin-4-ylthio)phenyl)acrylamide] | < 20 µM | < 20 µM | < 20 µM |
| C=CC(=O)Nc1ccc(Sc2nc(Nc3ccc(N4CCOCC4)cc3)ncc2Cl)cc1 [Compound 315, N-(4-(5-chloro-2-(4-morpholinophenylao)pyrimidin-4-ylthio)phenyl)acrylmide] | < 1 µM | > 20 µM | < 1 µM |
| COc1cc(Nc2nccc(Sc3ccc(NCC#N)cc3)n2)cc(OC)c1OC [Compound 52, 2-(4-(2-(3,4,5-trimethoxyphenylao)pyrimidin-4-ylthio)phenylao)acetonitrile] | < 5 µM | < 5 µM |  |
| C=CC(=O)Nc1ccc(Sc2ccnc(Nc3cccc(S(=O)(=O)N4CCN(C)CC4)c3)n2)cc1 [Compound 365, N-(4-(2-(3-(4-methylpiperazin-1-ylsulfonyl)phenylao)pyrimidin-4-ylthio)phenyl)acrylamide] | < 5 µM | < 20 µM | < 20 µM |
| C=CC(=O)Nc1ccc(Sc2ccnc(Nc3ccccc3O)n2)cc1 [Compound 279, N-(4-(2-(2-hydroxyphenylao)pyrimidin-4-ylthio)phenyl)acrylamide] | < 20 µM | < 20 µM | < 20 µM |
| Nc1ccc(Sc2nc(Nc3ccc(N4CCOCC4)cc3)ncc2I)cc1 [Compound 309, 4-(4-aophenylthio)-5-iodo-N-(4-morpholinophenyl)pyrimidin-2-ae] | < 5 µM | < 5 µM | < 1 µM |
| Cc1cnc(Nc2ccc(N3CCOCC3)cc2)nc1Sc1ccc(N)cc1 [Compound 126, 4-(4-aophenylthio)-5-methyl-N-(4-morpholinophenyl)pyrimidin-2-ae] | < 5 µM | < 5 µM | < 5 µM |
| C=CC(=O)Nc1ccc(Sc2nc(Nc3ccc(N4CCOCC4)cc3)ncc2C)c(Cl)c1C [Compound 171, N-(3-chloro-2-methyl-4-(5-methyl-2-(4-morpholinophenylao)pyrimidin-4-ylthio)phenyl)acrylamide] | < 5 µM | > 20 µM | < 20 µM |
| C=CC(=O)Nc1ccc(Sc2ccnc(Nc3ccc(N4CCC(N5CCCC5)CC4)cc3)n2)cc1 [Compound 87, N-(4-(2-(4-(4-(pyrrolidin-1-yl)piperidin-1-yl)phenylao)pyrimidin-4-ylthio)phenyl)acrylamide] | < 1 µM | < 5 µM | < 1 µM |
| COC(=O)COCC(=O)Nc1ccc(Sc2nc(Nc3ccc(N4CCOCC4)cc3)ncc2C)cc1 [Compound 189, methyl 2-(2-(4-(5-methyl-2-(4-morpholinophenylao)pyrimidin-4-ylthio)phenylao)-2-oxoethoxy)acetate] | < 20 µM | < 20 µM | > 20 µM |
| C=CC(=O)Nc1ccc(Sc2ccnc(Nc3cccc(Cl)c3)n2)cc1 [Compound 348, N-(4-(2-(3-chlorophenylao)pyrimidin-4-ylthio)phenyl)acrylamide] | < 5 µM | < 5 µM |  |
| C=CC(=O)Nc1ccc(Sc2nc(Nc3ccc(N4CCOCC4)cc3)ncc2-c2ccccc2)cc1 [Compound 307, N-(4-(2-(4-morpholinophenylao)-5-phenylpyrimidin-4-ylthio)phenyl)acrylamide] | < 20 µM | > 20 µM | > 20 µM |
| C=CC(=O)Nc1ccc(Sc2nc(Nc3ccccc3O)ncc2C)cc1 [Compound 287, N-(4-(2-(2-hydroxyphenylao)-5-methylpyrimidin-4-ylthio)phenyl)acrylamide] | < 20 µM | > 20 µM |  |
| C=CC(=O)Nc1ccc(Sc2ccnc(Nc3ccc(N4CCS(=O)(=O)CC4)cc3)n2)cc1 [Compound 99, N-{4-[(2-{[4-(1,1-dioxo-1λ^6,4-thiomorpholin-4-yl)phenyl]ao}pyrimidin-4-yl)sulfanyl]phenyl}prop-2-enamide] | < 1 µM | > 20 µM |  |
| C=CC(=O)Nc1ccc(Sc2ccnc(Nc3ccc(C(=O)OC)cc3)n2)cc1 [Compound 357, methyl 4-(4-(4-acrylamidophenylthio)pyrimidin-2-ylao)benzoate] | < 5 µM | < 5 µM |  |
| CC(=O)Nc1ccc(Sc2nc(Nc3ccc(N4CCOCC4)cc3)ncc2C)cc1 [Compound 135, N-(4-(5-methyl-2-(4-morpholinophenylao)pyrimidin-4-ylthio)phenyl)acetamide] | > 20 µM | < 20 µM |  |
